≈ marks a conversion by molar mass, not a printed value. Structures can show the parent of a compound that is named as a salt.
Columns and labels:
2.2.15 cells = assay: Cytotoxicity (TC50) in 2.2.15 cells; type: cell-based
Protocol: (§1) All compounds were evaluated for their anti-HBV activities, namely the ability to inhibit the replication of HBV DNA and the production of HBsAg and HBeAg in HBV-infected 2.2.15 cells.
(§2) The samples were dissolved in DMSO for appropriate concentrations, and then each was diluted 3-fold with culture medium. The 2.2.15 cells were planted into 96-well culture plates. […] The culture supernatants and 2.2.15 cells were collected respectively on the 8th plant day. The secretion concentrations of HBsAg and HBeAg in the culture supernatants were measured by RIA on SPRIA Kit for Detection of HBsAg and HBeAg (Beijing North Institute of Biological Technology), and the replication of HBV DNA was measured by dot hybridization with a^32PdCTP (FuRui Biological Technology Ltd., China).

HBV DNA = assay: In vitro anti-HBV activity: replication of HBV DNA in 2.2.15 cells (dot hybridization); type: cell-based, Hepatitis B virus (HBV); conditions: for IC50: Hepatitis B virus, read-out: DNA replication IC50; for DNA replication SI: selectivity index
Protocol: as §1, §2

HIV-1 protease = biological target: T1, HIV-1 protease (Human immunodeficiency virus type 1 group M subtype B, UniProt P04585); assay: Anti-HIV-1 protease activity (fluorescence labeled substrate); type: biochemical; conditions: for inhibition ratio at 0.5 ug/ml: sample concentration 0.5 ug/ml; for inhibition ratio at 2.0 ug/ml: sample concentration 2.0 ug/ml; for inhibition ratio at 10 ug/ml: sample concentration 10 ug/ml; for inhibition ratio at 50 ug/ml: sample concentration 50 ug/ml; for inhibition ratio at 250 ug/ml: sample concentration 250 ug/ml
T1 construct: The genetically engineered target enzyme (HIV-1 protease, preserved at −85° C.)
Protocol: HIV-1 protease can cut the fluorescence labeled substrate under optimal condition and reaction system, so the activity of enzyme is determined by the fluorescence in the product of enzymatic reaction. The samples are added into the reaction system to observe the inhibitive effect on the enzyme.
The samples and the reference drug Indinavir ([…].) were dissolved in DMSO or redistilled water for appropriate concentration. Each was diluted 5-fold and then added into the buffer containing fluorescence labeled substrate (MP Co.). The genetically engineered target enzyme (HIV-1 protease, preserved at −85° C.) was added to the buffer and incubated under the optimal reaction condition. The fluorescence was determined by FLUO star Galaxy fluorometer.

Row | SMILES | TC50 (2.2.15 cells) | IC50 (HBV DNA) | DNA replication SI (HBV DNA) | inhibition ratio at 0.5 ug/ml (HIV-1 protease) | inhibition ratio at 2.0 ug/ml (HIV-1 protease) | inhibition ratio at 10 ug/ml (HIV-1 protease) | inhibition ratio at 50 ug/ml (HIV-1 protease) | inhibition ratio at 250 ug/ml (HIV-1 protease) | IC50 (HIV-1 protease)
1 | CCOC(=O)c1c(CSc2ccc(F)cc2)n(C)c2cc(Br)c(O)c(CN3CCN(C)CC3)c12 [Example 17, Ethyl 6-bromo-5-hydroxy-1-methyl-4-[(4-methyl-1-piperazinyl)methyl]-2-[(4-fluorophenyl)thiomethyl]-1H-indole-3-carboxylate dihydrochloride] | 62.50 µg/mL | 17.8 µg/mL | 3.5 | −6.1 | −8.3 | −13.0 | −17.3 | 27.6 | 
2 | CCOC(=O)c1c(CSc2ccc(F)cc2)n(C2CC2)c2cc(Br)c(O)c(CN3CCN(C)CC3)c12 [Example 19, Ethyl 6-bromo-1-cyclopropyl-5-hydroxy-4-[(4-methyl-1-piperazinyl)methyl]-2-[(4-fluorophenyl)thiomethyl]-1H-indole-3-carboxylate dihydrochloride] | 37.04 µg/mL | 13 µg/mL | 2.85 | −5.6 | −8.9 | −8.9 | 20.7 | 63.9 | 232 µM
3 | CCOC(=O)c1c(CS(=O)(=O)c2cccc(OC)c2)n(C)c2cc(Br)c(O)c(CN(C)C)c12 [Example 55, Ethyl 6-bromo-4-[(dimethylamino)methyl]-5-hydroxy-1-methyl-2-[(3-methoxyphenyl)sulfonylmethyl]-1H-indole-3-carboxylate] | 21.56 µg/mL (≈ 40 µM) | 2.2 µg/mL (≈ 4.08 µM) | 9.7 | 2.1 | 6.7 | 0.1 | 30.5 | 98.0 | 49 µM
4 | CCOC(=O)c1c(C[S+]([O-])c2ccccc2C)n(C)c2cc(Br)c(O)c(CN3CCOCC3)c12 (stereo not shown) [Example 57, Ethyl 6-bromo-5-hydroxy-1-methyl-4-(morpholinomethyl)-2-[(2-methylphenyl)sulfinylmethyl]-1H-indole-3-carboxylate] | 51.53 µg/mL (≈ 93.8 µM) | 17 µg/mL (≈ 30.9 µM) | 3.03 | 6.4 | 9.2 | 1.9 | 15.5 | 41.0 | 
5 | CCOC(=O)c1c(C[S+]([O-])c2ccc(F)cc2)n(C)c2cc(Br)c(O)c(CN3CCOCC3)c12 (stereo not shown) [Example 58, Ethyl 6-bromo-5-hydroxy-1-methyl-4-(morpholinomethyl)-2-[(4-fluorophenyl)sulfinylmethyl]-1H-indole-3-carboxylate] | >500 µg/mL | 57.6 µg/mL (≈ 104 µM) | >8.7 | 11.7 | 11.6 | 15.9 | 22.9 | 37.4 | 
6 | CCOC(=O)c1c(C[S+]([O-])c2ccc(F)c(F)c2)n(C2CC2)c2cc(Br)c(O)c(CN3CCN(C)CC3)c12 (stereo not shown) [Example 67, Ethyl 6-bromo-1-cyclopropyl-5-hydroxy-4-[(4-methyl-1-piperazinyl)methyl]-2-[(3,4-difluorophenyl)sulfinylmethyl]-1H-indole-3-carboxylate dihydrochloride] | 34.35 µg/mL | 5.4 µg/mL | 6.35 | 3.2 | 10.5 | 9.4 | 0.5 | 19.3 | 
7 | CCOC(=O)c1c(C[S+]([O-])c2ccccc2)n(C)c2cc(Br)c(O)c(Cn3ccnc3)c12 (stereo not shown) [Example 116, Ethyl 6-bromo-5-hydroxy-4-[(1-imidazolyl)methyl]-1-methyl-2-(phenylsulfinylmethyl)-1H-indole-3-carboxylate] | 8.12 µg/mL (≈ 15.7 µM) | 2.56 µg/mL (≈ 4.96 µM) | 3.17 | 0.4 | −2.4 | −1.5 | 11.1 | 37.5 | 
8 | CCOC(=O)c1c(C[S+]([O-])c2ccc(C)cc2)n(C)c2cc(Br)c(O)c(CNC(=N)N)c12.Cl (stereo not shown) [Example 152, Ethyl 6-bromo-4-(guanidinylmethyl)-5-hydroxy-1-methyl-2-[(4-methylphenyl)sulfinylmethyl]-1H-indole-3-carboxylate hydrochloride] | 192.45 µg/mL | 10.2 µg/mL | 18.8 |  |  |  |  |  | 
9 | CCOC(=O)c1c(CS(=O)(=O)Cc2ccco2)n(C2CC2)c2cc(Br)c(O)c(Cn3ccnc3)c12 [Example 162, Ethyl 6-bromo-1-cyclopropyl-5-hydroxy-4-[(1-imidazolyl)methyl]-2-[(2-furylmethyl)sulfonylmethyl]-1H-indole-3-carboxylate] | 128.30 µg/mL (≈ 228 µM) | 51.7 µg/mL (≈ 92 µM) | 2.48 |  |  |  |  |  | 
10 | CCOC(=O)c1c(CS(=O)(=O)Cc2ccc(F)cc2)n(C)c2cc(Br)c(O)c(Cn3ccnc3)c12 [Example 163, Ethyl 6-bromo-5-hydroxy-4-[(1-imidazolyl)methyl]-1-methyl-2-[(4-fluorobenzyl)sulfonylmethyl]-1H-indole-3-carboxylate] | 21.39 µg/mL (≈ 37.9 µM) | 0.68 µg/mL (≈ 1.2 µM) | 31.45 |  |  |  |  |  | 
11 | CCOC(=O)c1c(CS(=O)(=O)c2ccc(C)cc2)n(C)c2ccc(O)c(Cn3ccnc3)c12 [Example 164, Ethyl 5-hydroxy-4-[(1-imidazolyl)methyl]-1-methyl-2-[(4-methylphenyl)sulfonylmethyl]-1H-indole-3-carboxylate] | 17.7 µg/mL (≈ 37.9 µM) | 2 µg/mL (≈ 4.28 µM) | 8.9 |  |  |  |  |  | 
12 | CCOC(=O)c1c(CS(=O)(=O)Cc2ccccc2F)n(C2CC2)c2cc(Br)c(O)c(Cn3ccnc3C)c12 [Example 165, Ethyl 6-bromo-1-cyclopropyl-5-hydroxy-4-[(2-methyl-1-imidazolyl)methyl]-2-[(2-fluorobenzyl)sulfonylmethyl]-1H-indole-3-carboxylate] | 7.76 µg/mL (≈ 12.8 µM) | 3.14 µg/mL (≈ 5.19 µM) | 2.47 |  |  |  |  |  | 
13 | CCOC(=O)c1c(CS(=O)(=O)c2ccccc2)n(C)c2cc(Br)c(O)c(Cn3ccnc3C)c12 [Example 166, Ethyl 6-bromo-5-hydroxy-1-methyl-4-[(2-methyl-1-imidazolyl)methyl]-2-(phenylsulfonylmethyl)-1H-indole-3-carboxylate] | 53.42 µg/mL (≈ 97.8 µM) | 7.53 µg/mL (≈ 13.8 µM) | 7.09 |  |  |  |  |  | 
14 | CCOC(=O)c1c(CS(=O)(=O)Cc2ccccc2)n(C)c2cc(Br)c(O)c(Cn3ccnc3C)c12 [Example 168, Ethyl 6-bromo-5-hydroxy-1-methyl-4-[(2-methyl-1-imidazolyl)methyl]-2-(benzylsulfonylmethyl)-1H-indole-3-carboxylate] | 35.61 µg/mL (≈ 63.5 µM) | 7.04 µg/mL (≈ 12.6 µM) | 5.06 |  |  |  |  |  | 
15 | CCOC(=O)c1c(CS(=O)(=O)Cc2ccccc2)n(C)c2cc(Br)c(O)c(CNC(=N)N)c12 [Example 173, Ethyl 6-bromo-4-(guanidinylmethyl)-5-hydroxy-1-methyl-2-(benzylsulfonylmethyl)-1H-indole-3-carboxylate] | 24.69 µg/mL (≈ 45.9 µM) | 5.04 µg/mL (≈ 9.38 µM) | 4.90 |  |  |  |  |  | 
16 | CCOC(=O)c1c(CS(=O)(=O)c2ccc(C(F)(F)F)cc2)n(C)c2cc(Br)c(O)c(Cn3ccnc3C)c12 [Example 180, Ethyl 6-bromo-5-hydroxy-1-methyl-4-[(2-methyl-1-imidazolyl)methyl]-2-[(4-trifluoromethylphenyl)sulfonylmethyl]-1H-indole-3-carboxylate] | 51.36 µg/mL (≈ 83.6 µM) | 3.56 µg/mL (≈ 5.79 µM) | 14.43 |  |  |  |  |  | 
17 | CCOC(=O)c1c(C[S+]([O-])Cc2ccccc2F)n(C2CC2)c2cc(Br)c(O)c(Cn3ccnc3C)c12 (stereo not shown) [Example 183, Ethyl 6-bromo-1-cyclopropyl-5-hydroxy-4-[(2-methyl-1-imidazolyl)methyl]-2-[(2-fluorobenzyl)sulfinylmethyl]-1H-indole-3-carboxylate] | 37.04 µg/mL (≈ 62.9 µM) | 3.45 µg/mL (≈ 5.86 µM) | 10.74 |  |  |  |  |  | 
18 | CCOC(=O)c1c(C[S+]([O-])Cc2ccc(F)cc2)n(C)c2cc(Br)c(O)c(Cn3ccnc3C)c12 (stereo not shown) [Example 184, Ethyl 6-bromo-5-hydroxy-1-methyl-4-[(2-methyl-1-imidazolyl)methyl]-2-[(4-fluorobenzyl)sulfinylmethyl]-1H-indole-3-carboxylate] | 53.42 µg/mL (≈ 95 µM) | 0.94 µg/mL (≈ 1.67 µM) | 56.83 |  |  |  |  |  | 
19 | CCOC(=O)c1c(CS(=O)(=O)Cc2ccc(F)cc2)n(C)c2cc(Br)c(O)c(Cn3ccnc3C)c12 [Example 185, Ethyl 6-bromo-5-hydroxy-1-methyl-4-[(2-methyl-1-imidazolyl)methyl]-2-[(4-fluorobenzyl)sulfonylmethyl]-1H-indole-3-carboxylate] | 12.35 µg/mL (≈ 21.3 µM) | 1.3 µg/mL (≈ 2.25 µM) | 9.5 |  |  |  |  |  | 

Source: patent US7960427B2, “5-hydroxyindole-3-carboxylate derivatives and uses thereof” (priority 2004, dated 2011)
